“Also recorded” adds a separate entry of the source. Positions of bridges follow the written chain, without caps; N, C: chain ends. Residues, ends and D or L forms follow the SMILES beside them.
What was measured:
[1] = ThT assay of fibrillization kinetics, peptides alone; type: physicochemical
Protocol: (§1) The time course of fibrillization in solution was monitored using 100–200 μL amylin samples, contained in white polystyrene clear bottom 96-well plates (Corning Inc., Corning, NY). Plates were covered with a clear polyester sealing tape (Fisher Scientific, Agawam, MA) to prevent evaporation. Stock solutions of 1.1 mM WT-amylin and inhibitor peptides were prepared in 100% DMSO, which dissolves and disaggregates amylin fibrils, and were stored at −80°C when not in use. Starting from the 1.1 mM stock solutions in 100% DMSO, samples for fibrillization reactions were prepared to contain 20 μM amylin and 10 μM ultrapure ThT, in 20 mM sodium phosphate buffer, pH 7.4, and a final DMSO concentration of 2% (v/v). For experiments using larger 400 μM concentrations of Arg-2 and Mem-T, the solutions were prepared by diluting 100% DMSO stock solutions of 20 mM peptide to a final DMSO concentration of 2% (v/v). Amylin was the last component added to the samples for the kinetic reactions, in order to reduce the dead time for the experiments. The plates were incubated at 25°C without agitation. Fluorescence intensity was recorded at 2 min intervals with excitation at 440 nm and emission at 490 nm on a Fluoroskan Ascent 2.5 fluorescence plate reader. Fibrillization reactions for the peptides alone were performed in triplicate and for analog-peptide inhibition of WT-amylin in duplicate, to estimate experimental uncertainties in kinetic parameters.

[2] = TEM of aggregates formed by peptides alone; type: physicochemical; settings: 80 μM peptide, 2 days, 20 mM phosphate pH 7.4, 37°C, no agitation
Protocol: (§2) Samples containing 80 μM concentrations of WT-amylin and the three analogs were incubated without agitation at a temperature of 37°C in 20 mM phosphate buffer (pH 7.4). For the inhibition reactions, samples contained WT-amylin at an 80 μM concentration, together with 160 μM of Arg-1, Arg-2, or Mem-T analogs. Aliquots from the reactions were removed after 2 days for TEM imaging. The aliquots were blotted onto carbon-coated 400-mesh Maxtaform copper grids (Ted Pella Inc. Redding, CA) for 1–3 min, followed by negative staining with 1% uranyl acetate. TEM images were recorded on an FEI Tecnai G^2 Spirit BioTwin transmission electron microscope equipped with an AMT XR-40 camera.

[3] = test system: WT-amylin cytotoxicity towards MIN6 mouse model of pancreatic β-cells; experiment: Protection of MIN6 cells against WT-amylin cytotoxicity (Alamar Blue)
Protocol: The stock solutions were diluted with FBS-free DMEM and sonicated continuously for 5 min at 75% amplitude before use. FBS was subsequently added to a concentration of 15% (v/v), giving final amylin concentrations of 40, 80, and 160 μM. The final DMSO concentration for all cytotoxicity experiments was 1% (v/v).
Cytotoxicity was measured using the mouse insulinoma 6 (MIN6) cell line model of β-pancreatic cells, which were a gift from Dr. Anil Rustgi (University of Pennsylvania). Cells were seeded at a density of 20,000 per 100 μL in black clear-bottom 96-well plates. The cells were grown in DMEM with 15% FBS, 25 mM glucose, 2 mM L-glutamine, […] sodium pyruvate, 55 μM β-mercaptoethanol, 1000 units/mL penicillin, and 100 μg/mL streptomycin, for 20 h at 37°C in a humidified incubator with 5% CO2. […] The cells were incubated for another 24 h followed by the addition of 10% (v/v) of the redox indicator dye Alamar Blue at the concentration supplied by the manufacturer (Invitrogen). Fluorescence, due to the reduction of Alamar Blue by viable cells, was measured after 6 h, using excitation and emission wavelengths of 544 and 590 nm, respectively. Cell viability was calculated from the ratio of Alamar Blue fluorescence in treated to untreated cells. Uncertainties were calculated as the SEMs of triplicate measurements.

WT-amylin [4] = molecular target: T1, WT-amylin (Homo sapiens, UniProt P10997); experiment: ThT assay, inhibition of WT-amylin fibrillization by analogs added in trans; type: biochemical; design: purchased Biopeptide (San Diego, CA); host or cells: solid-phase synthesis; settings: for reduction of WT-amylin fibril elongation rate: analog 0.001 to 120 μM; for reduction of WT-amylin elongation rate: Arg-1 between 0 and 200 μM
T1 sequence (P10997 34-70 limits assumed): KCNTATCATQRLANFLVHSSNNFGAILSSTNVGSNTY
Protocol: as §1, with “Starting from the 1.1 mM stock solutions in 100% DMSO, samples for fibrillization reactions were prepared to contain 20 μM amylin and 10 μM ultrapure ThT, in 20 mM sodium phosphate buffer, pH 7.4, and a final DMSO concentration of 2% (v/v).” left out

WT-amylin [5] = molecular target: T1, WT-amylin; experiment: TEM of WT-amylin fibrils formed in presence of inhibitor peptides; type: biochemical; design: purchased Biopeptide (San Diego, CA); host or cells: solid-phase synthesis; settings: 80 μM WT-amylin with 160 μM analog, 20 mM sodium phosphate pH 7.4, 1% DMSO, 37°C, 24 h
Protocol: as §2
Figure 8 TEM images of fibrils formed from 80 μM WT amylin in the presence or absence of inhibitor peptides. (a) WT amylin alone, (b) with 160 μM Arg-1, (c) with 160 μM Arg-2, and (d) with 160 μM Mem-T. Aliquots were removed for TEM imaging 24 h after the fibrillization reactions were started. Reactions were carried out in 20 mM sodium phosphate (pH 7.4), 1% DMSO (v/v), at 37°C.

[6] = 20 μM peptide, 150 mM NaCl, pH 7.4, 25°C

SMILES	increase of lag time compared to WT-amylin ([1]; 20 μM peptide, 150 mM NaCl)	reduction of elongation rate compared to WT-amylin ([1]; 20 μM peptide, 150 mM NaCl)	fibrillization detected (ThT) [1, 6]	fibrillization lag time ([1]; 20 μM peptide, 150 mM NaCl, 20 mM sodium phosphate pH 7.4, 10 μM ThT, 2% DMSO, 25°C, no agitation, fluorescence ex 440/em 490 nm, triplicate) [min]	fibril elongation rate ([1]; 20 μM peptide, 150 mM NaCl, 20 mM sodium phosphate pH 7.4, 10 μM ThT, 2% DMSO, 25°C, no agitation, triplicate) [min⁻¹]	aggregate morphology by TEM [2]	protection against WT-amylin cytotoxicity (overall) ([3]; MIN6 cells, 80 μM WT-amylin, up to 2 : 1 inhibitor : WT-amylin)	IC50 ([3]; mouse, 24 h) [µM]	effect on WT-amylin fibrillization lag time (WT-amylin [4]; 20 μM WT-amylin, 150 mM NaCl)	effect on steady-state fluorescence plateau (WT-amylin [4]; 20 μM WT-amylin, 150 mM NaCl)	reduction of WT-amylin fibril elongation rate (WT-amylin [4]; 20 μM WT-amylin, 150 mM NaCl)	reduction of WT-amylin elongation rate (WT-amylin [4]; 20 μM WT-amylin, 150 mM NaCl) [fold]	reduction of WT-amylin elongation rate (WT-amylin [4]; 20 μM WT-amylin, absence of salt) [fold]	effect on WT-amylin lag times, elongation rates and fluorescence plateaus (WT-amylin [4]; 80 μM WT-amylin, increasing Arg-1, 150 mM NaCl)	TEM of WT-amylin fibrils formed with inhibitor (WT-amylin [5])	fibrillization detected (ThT) ([1]; 400 μM peptide, pH 7.4, 2% DMSO, 25°C)	fibrillization of peptide on its own (overall) ([1]; ThT, all conditions tested)	protection against WT-amylin cytotoxicity ([3]; 160 μM analog : 80 μM WT-amylin (2 : 1))	salt dependence of inhibition of elongation rate (WT-amylin [4]; 20 μM WT-amylin, varying NaCl)
CC[C@H](C)[C@H](NC(=O)[C@H](C)NC(=O)CNC(=O)[C@H](Cc1ccccc1)NC(=O)[C@H](CC(N)=O)NC(=O)[C@H](CC(N)=O)NC(=O)[C@H](CO)NC(=O)[C@H](CO)NC(=O)[C@H](Cc1c[nH]cn1)NC(=O)[C@H](CCCNC(=N)N)NC(=O)[C@H](CCCNC(=N)N)NC(=O)[C@H](CCCNC(=N)N)NC(=O)[C@H](CCCNC(=N)N)NC(=O)[C@H](C)NC(=O)[C@H](CC(C)C)NC(=O)[C@H](CCCNC(=N)N)NC(=O)[C@H](CCC(N)=O)NC(=O)[C@@H](NC(=O)[C@H](C)NC(=O)[C@@H]1CSSC[C@H](NC(=O)[C@@H](N)CCCCN)C(=O)N[C@@H](CC(N)=O)C(=O)N[C@@H]([C@@H](C)O)C(=O)N[C@@H](C)C(=O)N[C@@H]([C@@H](C)O)C(=O)N1)[C@@H](C)O)C(=O)N[C@@H](CC(C)C)C(=O)N[C@@H](CO)C(=O)N[C@@H](CO)C(=O)N[C@H](C(=O)N[C@@H](CC(N)=O)C(=O)N[C@H](C(=O)NCC(=O)N[C@@H](CO)C(=O)N[C@@H](CC(N)=O)C(=O)N[C@H](C(=O)N[C@@H](Cc1ccc(O)cc1)C(N)=O)[C@@H](C)O)C(C)C)[C@@H](C)O [Arg-1] (H-KCNTATCATQRLARRRRHSSNNFGAILSSTNVGSNTY-NH2; disulfide 2-7 (inferred); N-terminus assumed)	about 2 fold	about 30%	detect fibrillization	210	0.0068	formed much fewer fibrils; also recorded: formed a larger proportion of short fibrils than WT-amylin; also recorded: fewer fibrils with shorter lengths	protects against WT-amylin cytotoxicity	~50	no effects on the lag times within experimental uncertainty	reduction in the steady-state fluorescence plateaus; also recorded: only observed to decrease with the Arg-1 analog	8–10 fold	7	4	increases in lag times with increasing Arg-1 concentration as well as decreases in elongation rates and steady-state fluorescence plateaus	somewhat fewer fibrils and a greater amount of short fibrils				
CC(C)C[C@H](NC(=O)[C@H](CCCNC(=N)N)NC(=O)[C@H](CCC(N)=O)NC(=O)[C@@H](NC(=O)[C@H](C)NC(=O)[C@@H]1CSSC[C@H](NC(=O)[C@@H](N)CCCCN)C(=O)N[C@@H](CC(N)=O)C(=O)N[C@@H]([C@@H](C)O)C(=O)N[C@@H](C)C(=O)N[C@@H]([C@@H](C)O)C(=O)N1)[C@@H](C)O)C(=O)N[C@@H](C)C(=O)N[C@@H](CC(N)=O)C(=O)N[C@@H](Cc1ccccc1)C(=O)N[C@@H](CC(C)C)C(=O)N[C@H](C(=O)N[C@@H](Cc1c[nH]cn1)C(=O)N[C@@H](CO)C(=O)N[C@@H](CO)C(=O)N[C@@H](CC(N)=O)C(=O)N[C@@H](CC(N)=O)C(=O)N[C@@H](CCCNC(=N)N)C(=O)N[C@@H](CCCNC(=N)N)C(=O)N[C@@H](CCCNC(=N)N)C(=O)N[C@@H](CCCNC(=N)N)C(=O)N[C@@H](CC(C)C)C(=O)N[C@@H](CO)C(=O)N[C@@H](CO)C(=O)N[C@H](C(=O)N[C@@H](CC(N)=O)C(=O)N[C@H](C(=O)NCC(=O)N[C@@H](CO)C(=O)N[C@@H](CC(N)=O)C(=O)N[C@H](C(=O)N[C@@H](Cc1ccc(O)cc1)C(N)=O)[C@@H](C)O)C(C)C)[C@@H](C)O)C(C)C [Arg-2] (H-KCNTATCATQRLANFLVHSSNNRRRRLSSTNVGSNTY-NH2; disulfide 2-7 (inferred); N-terminus assumed)			failed to fibrillize			only detected amorphous aggregates with nonfibrillar morphologies; also recorded: few if any fibrils			increased with increasing concentrations		8–10 fold				somewhat fewer fibrils and a greater amount of short fibrils	still failed to fibrillize	did not form fibrils under any of the conditions tested; also recorded: did not form fibrils even at high concentrations of the peptide and salt	protects against cytotoxicity	A very similar effect is seen; also recorded: more effective at physiological salt concentration or higher than in the absence of salt

Source: article PMC4630399, “Charge-Based Inhibitors of Amylin Fibrillization and Toxicity” (Journal of Diabetes Research, 2015)
